Measured values as given in patent publication US20210198256A1, “COMPOUNDS FOR THE DEGRADATION OF BRD9 OR MTH1” (C4 Therapeutics, Inc., priority 2018, published 2021).

System: SMART-CAR_MTH1-WT (Jurkat.2 cells)
Assay: HTFC Assay (HTFC DC50)
Assay type: cell-based, human
Settings: Jurkat.2 (SMART-CAR_MTH1-WT) cells, 4 hours at 37° C., FITC anti-HA staining, flow cytometry
Experimental: FITC anti-HA.11 epitope tag antibody (Biolegend #901507) FITC Mouse IgG1 k isotope control antibody (Biolegend #400108)
Dry dispense 10 nL/well of compound+90 […] into 96-well V-bottom plates: 4 compounds/plate in 11-point dose response in biological duplicates. Column 12 as DMSO controls.
• 1. Plate Jurkat.2 (SMART-CAR_MTH1-WT) cells with Combi on top of dry dispensed compound: 500,000 cells/mL, 100 uL/well • 2. Incubate for 4 hours at 37° C. • 3. Fixation, permeabilization, and staining: • a. Centrifuge at 1500 rpm for 7 minutes, remove supernatant. • b. Add 100 μl of Fixation/Permeabilization Solution, seal plates, vortex, pulse spin, and incubate at 4° C. for 30 minutes. • c. Centrifuge at 1500 rpm for 7 minutes, remove supernatant. • d. Dilute BD Perm/Wash Buffer to 1× with milliQ water. • e. Wash with 200 uL of BD Perm/Wash Buffer, seal plates, vortex. • f. Centrifuge at 1500 rpm for 7 minutes, remove supernatant. • g. Wash with 200 uL of BD Perm/Wash Buffer, seal plates, vortex. (Option to stop, store at 4° C. if needed) • h. Centrifuge at 1500 rpm for 7 minutes, remove supernatant. • i. Add 50 uL BD Perm/Wash Buffer containing 1:1000 of HA-FITC (Well A12:D12) or IgG-FITC (Well F12:H12) directly conjugated antibody, seal plates, vortex, pulse spin, and incubate at 4° C. for 1 hour. • j. Centrifuge at 1500 rpm for 7 minutes, remove supernatant. • k. Wash with 200 uL of BD Perm/Wash Buffer, seal plates, vortex. • 4. Centrifuge at 1500 rpm for 7 minutes, remove supernatant. • a. Resuspend in 200 ul of BD Perm/Wash Buffer. (Option to stop, store at 4° C. if needed)
• 1. Use analysis from template HTFC file. • 2. Export statistics by going to Tools>Group stats, save as a .csv file with the plate barcode as the name. • 3. Remove all columns from this file except for “Well”, “Sample ID”, “Date”, and “HA+.Mean.Y Mean for HA+ gated by P01.cells”. • 4. Create a New DB Analysis in Scinamic using the “HTFC-Cell Pharm” template. • 5. Load Incyte file “barcode”.csv. • 6. Load Echo file with the generated Echo report (P:\LabData\Echo\Project\SMARTCAR\Echo Report\Labcyte Echo Dose-Response) • 7. Edit Platemap.xlsx with the plate barcodes. • 8. Load Plate Map with this file. • 9. Cleanup compound Ids, mask control outliers, and assign curves.
Using the above assay the HTFC DC50 data was determined for the compounds in Table 2 below.
Example 6: HiBit and HTFC DC50 Data for Representative Compounds of the Present Invention

## CNC(=O)c1cnc2ccc(C(=O)NCC(=O)N3CCN(C(=O)CNc4cccc5c4C(=O)N(C4CCC(=O)NC4=O)C5=O)CC3)cc2c1Nc1ccccc1 (stereo not drawn) [Compound 348, 4-anilino-N6-[2-[4-[2-[[2-(2,6-dioxo-3-piperidyl)-1,3-dioxo-isoindolin-4-yl]amino]acetyl]piperazin-1-yl]-2-oxo-ethyl]-N3-methyl-quinoline-3,6-dicarboxamide]
  DC50: < 100 nM

## CNC(=O)c1cnc2ccc(-c3ccc(C(=O)NCCCCNC(=O)CNc4cccc5c4C(=O)N(C4CCC(=O)NC4=O)C5=O)c(F)c3)cc2c1Nc1ccccc1 (stereo not drawn) [Compound 350, 4-anilino-6-[4-[4-[[2-[[2-(2,6-dioxo-3-piperidyl)-1,3-dioxo-isoindolin-4-yl]amino]acetyl]amino]butylcarbamoyl]-3-fluoro-phenyl]-N-methyl-quinoline-3-carboxamide]
  DC50: < 100 nM

## CNC(=O)c1cnc2ccc(-c3ccn(CCCCCCNC(=O)COc4cccc5c4C(=O)N(C4CCC(=O)NC4=O)C5=O)n3)cc2c1Nc1ccccc1 (stereo not drawn) [Compound 361, 4-anilino-6-[1-[6-[[2-[2-(2,6-dioxo-3-piperidyl)-1,3-dioxo-isoindolin-4-yl]oxyacetyl]amino]hexyl]pyrazol-3-yl]-N-methyl-quinoline-3-carboxamide]
  DC50: < 100 nM

## CNC(=O)c1cnc2ccc(-c3ccc(C(=O)NCCCN4CCC(Nc5cccc6c5C(=O)N(C5CCC(=O)NC5=O)C6=O)CC4)cc3)cc2c1Nc1ccccc1 (stereo not drawn) [Compound 366, 4-anilino-6-[4-[3-[4-[[2-(2,6-dioxo-3-piperidyl)-1,3-dioxo-isoindolin-4-yl]amino]-1-piperidyl]propylcarbamoyl]phenyl]-N-methyl-quinoline-3-carboxamide]
  DC50: < 100 nM

## CNC(=O)c1cnc2cc(OC)c(-c3ccc(C(=O)NCCCCNC(=O)C(C)Nc4cccc5c4C(=O)N(C4CCC(=O)NC4=O)C5=O)c(F)c3)cc2c1Nc1ccccc1 (stereo not drawn) [Compound 367, 6-(4-((4-(2-((2-(2,6-dioxopiperidin-3-yl)-1,3-dioxoisoindolin-4-yl)amino)propanamido)butyl)carbamoyl)-3-fluorophenyl)-7-methoxy-N-methyl-4-(phenylamino)quinoline-3-carboxamide]
  DC50: < 100 nM

## CNC(=O)c1cnc2ccc(-c3ccc(OCCCCNC(=O)CNc4cccc5c4C(=O)N(C4CCC(=O)NC4=O)C5=O)nc3)cc2c1Nc1ccccc1 (stereo not drawn) [Compound 369, 4-anilino-6-[6-[4-[[2-[[2-(2,6-dioxo-3-piperidyl)-1,3-dioxo-isoindolin-4-yl]amino]acetyl]amino]butoxy]-3-pyridyl]-N-methyl-quinoline-3-carboxamide]
  DC50: < 100 nM

## CNC(=O)c1cnc2cc(OC)c(OCC3CCN(C(=O)CCCNC(=O)CNc4cccc5c4C(=O)N(C4CCC(=O)NC4=O)C5=O)CC3)cc2c1Nc1ccccc1 (stereo not drawn) [Compound 370, 6-((1-(4-(2-((2-(2,6-dioxopiperidin-3-yl)-1,3-dioxoisoindolin-4-yl)amino)acetamido)butanoyl)piperidin-4-yl)methoxy)-7-methoxy-N-methyl-4-(phenylamino)quinoline-3-carboxamide]
  DC50: < 100 nM

## CNC(=O)c1cnc2cc(OC)c(OCC3CCN(CCCCNC(=O)CNc4cccc5c4C(=O)N(C4CCC(=O)NC4=O)C5=O)CC3)cc2c1Nc1ccccc1 (stereo not drawn) [Compound 371, 6-((1-(4-(2-((2-(2,6-dioxopiperidin-3-yl)-1,3-dioxoisoindolin-4-yl)amino)acetamido)butyl)piperidin-4-yl)methoxy)-7-methoxy-N-methyl-4-(phenylamino)quinoline-3-carboxamide]
  DC50: < 100 nM

## COc1cc2ncc(C(=O)NC(C)(C)C)c(Nc3ccccc3)c2cc1-c1ccc(C(=O)NCCCCn2cc(CNc3cccc4c3C(=O)N(C3CCC(=O)NC3=O)C4=O)nn2)nc1 (stereo not drawn) [Compound 373, N-(tert-butyl)-6-(6-((4-(4-(((2-(2,6-dioxopiperidin-3-yl)-1,3-dioxoisoindolin-4-yl)amino)methyl)-1H-1,2,3-triazol-1-yl)butyl)carbamoyl)pyridin-3-yl)-7-methoxy-4-(phenylamino)quinoline-3-carboxamide]
  DC50: < 100 nM
